Measurements published in US9744150B2, “Suspension containing micronized benzoyl peroxide” (Dow Pharmaceutical Sciences Inc., priority 2009, dated 2017).

Experiment: surface tension by Du Noüy ring method, Krüss K20 EasyDyne tensiometer
Assay type: physicochemical
Conditions: for Surface tension: room temperature
Procedure: As used herein, the term “surface tension” refers to the force required to increase the unit area of a surface of a liquid or of an interface between two liquids or between a liquid and a gas, generally stated in units of dynes/cm. Surface tensions described herein are measured by the Du Noüy ring method utilizing an EasyDyne tensiometer model K20 marketed by Krüss USA, Matthews, N.C.
Surface tension of a fluid containing water was determined prior to and after mixing with various concentrations of various water soluble organic solvents in water. […] The study was performed at room temperature utilizing a Kruss Surface Tensiometer, Model K20 EasyDyne (Kruss USA, Matthews, N.C.) and the results are shown in Table 4. Values for surface tension are in dynes/cm.

Surface tension (1.0 % w/w solvent in water) [dynes/cm] | Surface tension (2.5 % w/w solvent in water) [dynes/cm] | Surface tension (5 % w/w solvent in water) [dynes/cm] | Surface tension (7.5 % w/w solvent in water) [dynes/cm] | Surface tension (10 % w/w solvent in water) [dynes/cm] | Surface tension (12.5 % w/w solvent in water) [dynes/cm] | Surface tension (15.0 % w/w solvent in water) [dynes/cm] | Surface tension (17.5 % w/w solvent in water) [dynes/cm] | Surface tension (20 % w/w solvent in water) [dynes/cm] | Surface tension (22.5 % w/w solvent in water) [dynes/cm] | Surface tension (25 % w/w solvent in water) [dynes/cm] | Surface tension (100 % w/w solvent) [dynes/cm] | Surface tension (30 % w/w solvent in water) [dynes/cm] | concentration suitable for the invention (surface tension less than 64 dynes/cm) (solvent in water, from the data of Table 4) [%] | Surface tension (50 % w/w solvent in water) [dynes/cm] | Surface tension (75 % w/w solvent in water) [dynes/cm] | suitability for the present method (by itself, at concentrations of 75% or less) | Compound
62.1 |  | 47.3 | 42.0 | 38.6 | 35.7 | 33.1 | 31.1 | 29.5 | 28.1 | 27.3 | 21.1 |  |  |  |  |  | CC(C)O [Isopropyl Alcohol, isopropyl alcohol]
68.5 | 63.8 | 56.8 | 49.6 | 45.9 | 46.5 | 44.1 | 43.5 |  |  |  |  |  |  |  |  |  | CC1COC(=O)O1 (stereo not shown) [Propylene Carbonate, propylene carbonate]
70.8 | 68.7 | 65.9 | 63.6 | 61.7 | 59.7 | 58.3 | 56.5 | 55.2 | 54.1 | 52.8 | 36.1 | 50.6 | ≥ 7.5 |  |  |  | CC(O)CO (stereo not shown) [Propylene Glycol USP, propylene glycol]
66.2 | 62.5 | 56.8 | 55.3 | 53.1 | 50.4 | 49.7 | 47.6 | 43.2 | 43.1 | 43.8 | 32.0 |  |  |  |  |  | CCOCCOCCO [Ethoxy Diglycol NF, ethoxydiglycol]
67.4 | 62.0 | 55.9 | 51.4 | 47.8 | 44.6 | 42.2 | 40.2 | 38.0 | 36.6 | 34.9 | 22.3 |  |  |  |  |  | CCO [Ethanol (200 proof), ethanol]
 |  |  |  |  |  |  |  |  |  | 69.8 | 62.0 |  |  | 68.9 | 66.4 | not suitable | OCC(O)CO [Glycerin USP, glycerin]

Compound | Surface tension (1.0 % w/w solvent in water) [dynes/cm] | Surface tension (2.5 % w/w solvent in water) [dynes/cm] | Surface tension (5 % w/w solvent in water) [dynes/cm] | Surface tension (7.5 % w/w solvent in water) [dynes/cm] | Surface tension (10 % w/w solvent in water) [dynes/cm] | Surface tension (12.5 % w/w solvent in water) [dynes/cm] | Surface tension (15.0 % w/w solvent in water) [dynes/cm] | Surface tension (17.5 % w/w solvent in water) [dynes/cm] | Surface tension (20 % w/w solvent in water) [dynes/cm] | Surface tension (22.5 % w/w solvent in water) [dynes/cm] | Surface tension (25 % w/w solvent in water) [dynes/cm] | Surface tension (100 % w/w solvent) [dynes/cm] | Surface tension (30 % w/w solvent in water) [dynes/cm] | concentration suitable for the invention (surface tension less than 64 dynes/cm) (solvent in water, from the data of Table 4) [%] | Surface tension (50 % w/w solvent in water) [dynes/cm] | Surface tension (75 % w/w solvent in water) [dynes/cm] | suitability for the present method (by itself, at concentrations of 75% or less)
CO[C@H]1CO[C@H]2[C@@H]1OC[C@H]2OC [Dimethyl Isosorbide, dimethyl isosorbide] | 66.0 | 61.7 | 52.8 | 52.1 | 47.9 | 46.4 | 43.5 | 41.9 | 38.6 | 40.5 | 41.7 | 39.3 |  |  |  |  | 
OCCCO [1,3-Propanediol, 1,3-propanediol] | 69.8 | 68.1 | 64.6 | 64.4 | 61.2 | 61.1 | 61.0 | 58.9 | 60.4 | 58.2 | 58.3 |  |  |  |  |  | 
